Reference: patent US12257274B2, “Fructophilic lactic acid producing bacteria” (priority 2019, dated 2025)
Where a name gives a salt, the structure may show the parent alone. Read-outs that look alike come from different tables or passages of the source.

What was measured:
[1] = test system: Bacillus coagulans MTCC 25235; test: MIC of antibiotics by broth microdilution (CLSI), antibiotic resistance pattern; format: cell-based
Procedure: (§1) MIC was determined as per the guidelines of Clinical and Laboratory Standards Institute (CLSI 2012). Bacillus coagulans MTCC 25235 suspensions were prepared by suspending 18 h grown bacterial culture in sterile normal saline (0.89% NaCl wt/vol; Himedia, Mumbai India). The turbidity of the bacterial suspension was adjusted to 0.5 McFarland standards (equivalent to 1.5×10^8 colony forming units (CFU)/ml). The antibiotics stock solutions were prepared as per CLSI guidelines and 2-fold serial dilutions were prepared in broth medium (glucose yeast extract acetate broth [GYEA, HiMedia, Mumbai India for Bacillus coagulans MTCC 25235 and Mueller Hinton Broth [MHB, Difco Laboratories, Detroit, Mich USA] for S. aureus) in 100 μl volume in 96-well U bottom microtiter plates (BD Labware, NJ USA). The above-mentioned bacterial suspension was further diluted in the MHB and 100 μl volume of this diluted inoculum was added to each well of the plate resulting in the final inoculum of 5×10^5 CFU/ml in the well and the final concentration of antibiotics ranged from 0.0078 to 4 μg/ml. S. aureus ATCC 6538 was used as reference culture in this study. The plates were incubated at 37° C. for 24 h and were visually read for the absence or presence of turbidity. The minimum concentration of the compound concentration showing no turbidity was recorded as MIC.

S. aureus ATCC 6538 = test: MIC of antibiotics by broth microdilution (CLSI), reference culture; format: cell-based
Procedure: as §1

[2] = against Bacillus coagulans MTCC 25235, GYEA broth, 37° C., 24 h
[3] = against S. aureus ATCC 6538, MHB, 37° C., 24 h
[4] = Heyndrickxia coagulans, MTCC25235, against Bacillus coagulans MTCC 25235, GYEA broth, 37° C., 24 h, read-out: MIC
[5] = Staphylococcus aureus, ATCC6538, against S. aureus ATCC 6538, MHB, 37° C., 24 h, read-out: MIC
[6] = Heyndrickxia coagulans, MTCC25235, 24 h
[7] = Staphylococcus aureus, ATCC6538, 24 h

Row | Compound | MIC [1, 4] | MIC (S. aureus ATCC 6538; [5]) | further results
1 | Gentamicin sulphate | – | – | MIC [1, 2]: 0.06 µg/mL; MIC (S. aureus ATCC 6538; [3]): 0.25 µg/mL
2 | CC1(C)S[C@@H]2[C@H](NC(=O)[C@H](N)c3ccccc3)C(=O)N2[C@H]1C(=O)O [Ampicillin sodium salt] | 0.125 µg/mL | 0.031 µg/mL | –
3 | CN(C)[C@@H]1C(O)=C(C(N)=O)C(=O)[C@@]2(O)C(O)=C3C(=O)c4c(O)cccc4[C@@](C)(O)[C@H]3C[C@@H]12 [Tetracycline hydrochloride] | 0.03 µg/mL | 0.062 µg/mL | –
4 | CC[C@H]1OC(=O)[C@H](C)[C@@H](O[C@H]2C[C@@](C)(OC)[C@@H](O)[C@H](C)O2)[C@H](C)[C@@H](O[C@@H]2O[C@H](C)C[C@H](N(C)C)[C@H]2O)[C@](C)(O)C[C@@H](C)C(=O)[C@H](C)[C@@H](O)[C@]1(C)O [Erythromycin] | – | – | MIC [1, 6]: 0.125 µg/mL; MIC (S. aureus ATCC 6538; [7]): 0.125 µg/mL
5 | CN[C@H](CC(C)C)C(=O)N[C@H]1C(=O)N[C@@H](CC(N)=O)C(=O)N[C@H]2C(=O)N[C@H]3C(=O)N[C@H](C(=O)N[C@H](C(=O)O)c4cc(O)cc(O)c4-c4cc3ccc4O)[C@H](O)c3ccc(c(Cl)c3)Oc3cc2cc(c3O[C@@H]2O[C@H](CO)[C@@H](O)[C@H](O)[C@H]2O[C@H]2C[C@](C)(N)[C@H](O)[C@H](C)O2)Oc2ccc(cc2Cl)[C@H]1O [Vancomycin hydrochloride] | – | – | MIC [1, 6]: 0.25 µg/mL; MIC (S. aureus ATCC 6538; [7]): 0.5 µg/mL
6 | Kanamycin sulphate | – | – | MIC [1, 2]: 0.062 µg/mL; MIC (S. aureus ATCC 6538; [3]): 7.0 µg/mL
7 | CCC[C@@H]1C[C@@H](C(=O)N[C@@H]([C@H]2O[C@H](SC)[C@H](O)[C@@H](O)[C@H]2O)[C@H](C)Cl)N(C)C1 [Clindamycin hydrochloride] | 0.25 µg/mL | 0.062 µg/mL | –
8 | [H]/N=C(/N)N[C@H]1[C@H](O)[C@@H](O)[C@H](O[C@@H]2O[C@@H](C)[C@](O)(C=O)[C@H]2O[C@@H]2O[C@@H](CO)[C@H](O)[C@@H](O)[C@@H]2NC)[C@@H](N/C(N)=N\[H])[C@@H]1O [Streptomycin sulphate] | 0.062 µg/mL | 4 µg/mL | –
9 | O=C(N[C@H](CO)[C@H](O)c1ccc([N+](=O)[O-])cc1)C(Cl)Cl [Chloramphenicol] | 0.031 µg/mL | 2 µg/mL | –
